Measurements as given in patent US7928107B2, “Quinazolines useful as modulators of ion channels” (Vertex Pharmaceuticals Incorporated, priority 2004, dated 2011).
pIC50: −log10 of the molar value.

Target: NaV 1.8 channel (Homo sapiens, UniProt Q9Y5Y9)
Assay: Activity against NaV 1.8 channel (optical membrane potential assay)
Type: cell-based
Outline: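 FRET membrane-potential assay (coumarin CC2-DMPE donor, oxonol DiSBAC2(3) acceptor plus veratridine) on VIPR; compound added with oxonol for 20–30 min before Na+ add-back stimulation. Activity from background-subtracted 460/580 nm ratio change (baseline 2–7 s, response 15–24 s) relative to tetracaine positive and drug-free negative controls.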

NaV 1.8 channel, sequence (Q9Y5Y9 whole entry): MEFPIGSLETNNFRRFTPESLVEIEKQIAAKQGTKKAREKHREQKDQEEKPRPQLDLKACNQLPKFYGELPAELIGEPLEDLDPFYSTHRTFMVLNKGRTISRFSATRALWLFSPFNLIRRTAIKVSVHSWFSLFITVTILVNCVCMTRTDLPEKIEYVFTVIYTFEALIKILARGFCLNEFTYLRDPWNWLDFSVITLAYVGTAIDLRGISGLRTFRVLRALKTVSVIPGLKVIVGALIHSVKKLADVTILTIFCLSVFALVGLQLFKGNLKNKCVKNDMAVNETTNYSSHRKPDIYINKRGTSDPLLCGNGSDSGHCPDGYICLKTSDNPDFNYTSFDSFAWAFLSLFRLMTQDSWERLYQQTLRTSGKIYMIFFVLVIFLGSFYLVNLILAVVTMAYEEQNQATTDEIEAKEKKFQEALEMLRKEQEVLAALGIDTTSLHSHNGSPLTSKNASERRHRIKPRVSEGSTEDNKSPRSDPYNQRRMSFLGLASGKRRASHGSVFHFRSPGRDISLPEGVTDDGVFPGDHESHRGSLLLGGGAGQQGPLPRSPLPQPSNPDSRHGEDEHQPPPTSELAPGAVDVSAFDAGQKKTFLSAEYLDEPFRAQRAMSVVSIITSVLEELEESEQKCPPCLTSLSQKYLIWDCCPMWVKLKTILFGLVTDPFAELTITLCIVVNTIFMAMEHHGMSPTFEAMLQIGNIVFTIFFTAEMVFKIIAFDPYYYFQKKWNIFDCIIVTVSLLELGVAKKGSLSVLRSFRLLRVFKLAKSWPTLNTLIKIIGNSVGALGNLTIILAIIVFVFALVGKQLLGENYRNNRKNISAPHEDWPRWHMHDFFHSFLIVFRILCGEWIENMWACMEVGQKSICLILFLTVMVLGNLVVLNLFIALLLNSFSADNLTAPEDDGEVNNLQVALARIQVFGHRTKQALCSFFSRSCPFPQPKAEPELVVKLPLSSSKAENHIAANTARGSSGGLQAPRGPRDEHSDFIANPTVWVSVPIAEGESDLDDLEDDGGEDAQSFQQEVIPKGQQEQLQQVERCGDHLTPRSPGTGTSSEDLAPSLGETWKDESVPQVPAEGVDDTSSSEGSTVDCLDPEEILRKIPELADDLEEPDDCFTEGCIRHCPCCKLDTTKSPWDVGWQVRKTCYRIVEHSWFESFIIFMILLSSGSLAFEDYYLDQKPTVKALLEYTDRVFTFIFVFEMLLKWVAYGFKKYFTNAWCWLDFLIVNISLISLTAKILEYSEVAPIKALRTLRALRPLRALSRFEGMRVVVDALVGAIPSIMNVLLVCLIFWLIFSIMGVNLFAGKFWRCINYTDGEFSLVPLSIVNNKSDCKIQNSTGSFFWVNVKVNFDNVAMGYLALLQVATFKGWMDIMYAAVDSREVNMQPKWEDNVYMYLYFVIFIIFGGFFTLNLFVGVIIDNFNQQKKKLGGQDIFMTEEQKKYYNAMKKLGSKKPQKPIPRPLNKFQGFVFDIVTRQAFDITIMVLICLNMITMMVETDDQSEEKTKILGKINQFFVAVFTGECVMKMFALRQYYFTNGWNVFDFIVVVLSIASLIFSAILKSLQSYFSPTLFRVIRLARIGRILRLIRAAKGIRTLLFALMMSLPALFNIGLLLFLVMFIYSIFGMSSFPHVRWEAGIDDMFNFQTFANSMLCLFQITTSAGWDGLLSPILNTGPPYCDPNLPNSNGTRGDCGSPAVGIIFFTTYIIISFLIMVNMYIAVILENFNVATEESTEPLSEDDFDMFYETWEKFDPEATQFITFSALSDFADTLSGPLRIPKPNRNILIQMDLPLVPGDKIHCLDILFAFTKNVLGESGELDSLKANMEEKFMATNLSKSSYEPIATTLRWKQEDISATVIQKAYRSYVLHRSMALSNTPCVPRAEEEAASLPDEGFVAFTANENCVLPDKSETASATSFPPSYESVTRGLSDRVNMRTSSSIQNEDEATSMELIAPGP

pIC50	SMILES
< 5.00	Cc1ccc2c(N3CC[C@@H](NC(=O)OCc4cccc5c4OCO5)C3)nc(-c3ccccc3O)nc2c1 [Example 321, (Benzo[d][1,3]dioxol-7-yl)methyl (R)-1-(2-(2-hydroxyphenyl)-7-methylquinazolin-4-yl)pyrrolidin-3-ylcarbamate]
< 5.00	Cc1ccc2c(N3CC[C@@H](NC(=O)C(O)c4ccc(F)cc4)C3)nc(-c3ccccc3O)nc2c1 (stereo partly drawn) [Example 360, 2-(4-Fluorophenyl)-2-hydroxy-N—((R)-1-(2-(2-hydroxyphenyl)-7-methylquinazolin-4-yl)pyrrolidin-3-yl)acetamide]
5.00 to 5.70	O=C(OCc1cccnc1)N1CCN(c2nc(-c3ccccc3O)nc3ccccc23)CC1 [Example 107, (Pyridin-3-yl)methyl 4-(2-(2-hydroxyphenyl)quinazolin-4-yl)piperazine-1-carboxylate]
5.00 to 5.70	Cc1ccc2c(N3CC[C@@H](NC(=O)C4CC4)C3)nc(-c3c(O)cccc3F)nc2c1 [Example 346, N—((R)-1-(2-(2-Fluoro-6-hydroxyphenyl)-7-methylquinazolin-4-yl)pyrrolidin-3-yl)cyclopropanecarboxamide]
5.00 to 5.70	O=C(N[C@@H]1CCN(c2nc(-c3ccccc3O)nc3ccc(F)cc23)C1)O[C@H]1CCOC1 [Example 335, (S)-Tetrahydrofuran-3-yl (R)-1-(6-fluoro-2-(2-hydroxyphenyl)quinazolin-4-yl)pyrrolidin-3-ylcarbamate]
5.00 to 5.70	O=C(N[C@@H]1CCN(c2nc(-c3ccccc3O)nc3ccc(F)cc23)C1)O[C@@H]1CCOC1 [Example 337, (R)-Tetrahydrofuran-3-yl (R)-1-(6-fluoro-2-(2-hydroxyphenyl)quinazolin-4-yl)pyrrolidin-3-ylcarbamate]
> 5.70	Cc1ccc2c(N3CCC(NC(=O)OCC4CCCCO4)CC3)nc(-c3ccccc3O)nc2c1 (centres unmarked) [Example 219, {1-[2-(2-Hydroxy-phenyl)-7-methyl-quinazolin-4-yl]-piperidin-4-yl}-carbamic acid tetrahydro-pyran-2-ylmethyl ester]
< 5.00	Cc1ccc2c(N3CCN(C(=O)OCc4cccc5c4OCO5)CC3)nc(-c3ccccc3O)nc2c1 [Example 103, (Benzo[d][1,3]dioxol-7-yl)methyl 4-(2-(2-hydroxyphenyl)-7-methylquinazolin-4-yl)piperazine-1-carboxylate]
5.00 to 5.70	Cc1ccc2c(N3CCC[C@@H](NC(=O)[C@H]4CCCO4)C3)nc(-c3ccccc3O)nc2c1 [Example 206, (2R)-Tetrahydro-N—((R)-1-(2-(2-hydroxyphenyl)-7-methylquinazolin-4-yl)piperidin-3-yl)furan-2-carboxamide]
< 5.00	CC(=O)C[C@@H](O)C(=O)N1CCN(c2nc(-c3ccccc3O)nc3cc(C)ccc23)CC1 [Example 151, (R)-2-Hydroxy-1-(4-(2-(2-hydroxyphenyl)-7-methylquinazolin-4-yl)piperazin-1-yl)pentan-1,4-dione]
< 5.00	Cc1ccc2c(N3CC[C@@H](NC(=O)[C@H]4CCCO4)C3)nc(-c3ccccc3O)nc2c1 [Example 302, (R,R)-Tetrahydro-furan-2-carboxylic acid {1-[2-(2-hydroxy-phenyl)-7-methyl-quinazolin-4-yl]-pyrrolidin-3-yl}-amide]
5.00 to 5.70	COCCOC(=O)NCC1CN(c2nc(-c3ccccc3O)nc3cc(C)ccc23)C1 [Example 419]
< 5.00	Cc1ccc2c(N3CC(CNC(=O)C4CCCO4)C3)nc(-c3ccccc3O)nc2c1 (centres unmarked) [Example 417]
5.00 to 5.70	Cc1ccc2c(N3CCC(NC(=O)O[C@@H]4CCOC4)CC3)nc(-c3ccccc3O)nc2c1 [Example 272]
5.00 to 5.70	Cc1ccc2c(N3CC[C@@H](NC(=O)c4ccccn4)C3)nc(-c3c(O)cccc3F)nc2c1 [Example 351, N—((R)-1-(2-(2-Fluoro-6-hydroxyphenyl)-7-methylquinazolin-4-yl)pyrrolidin-3-yl)picolinamide]
5.00 to 5.70	CCCCC(O)C(=O)N1CCN(c2nc(-c3ccccc3O)nc3cc(C)ccc23)CC1 (centres unmarked) [Example 120]
< 5.00	Cc1ccc2c(N3CCC(NC(=O)[C@H](O)CC(C)C)CC3)nc(-c3ccccc3O)nc2c1 [Example 267]
5.00 to 5.70	Cc1ccc2c(N3CC[C@@H](NC(=O)c4ccccn4)C3)nc(-c3ccccc3O)nc2c1 [Example 354, N—((R)-1-(2-(2-Hydroxyphenyl)-7-methylquinazolin-4-yl)pyrrolidin-3-yl)picolinamide]
< 5.00	Cc1ccc2c(N3CCC[C@@H](CNC(=O)O[C@@H]4CCOC4)C3)nc(-c3ccccc3O)nc2c1 [Example 214, (R)-Tetrahydrofuran-3-yl ((S)-1-(2-(2-hydroxyphenyl)-7-methylquinazolin-4-yl)piperidin-3-yl)methylcarbamate]
5.00 to 5.70	Cc1ccc2c(N3CC[C@@H](NC(=O)O[C@H]4CCOC4)C3)nc(-c3c(O)cccc3F)nc2c1 [Example 345, (S)-Tetrahydrofuran-3-yl (R)-1-(2-(2-fluoro-6-hydroxyphenyl)-7-methylquinazolin-4-yl)pyrrolidin-3-ylcarbamate]

pIC50	SMILES
> 5.70	Cc1ccc2c(N3CCC[C@@H](NC(=O)OCC(C)C)C3)nc(-c3ccccc3O)nc2c1 [Example 282]
< 5.00	Cc1ccc2c(N3CCC(C(=O)NCC4CCCO4)CC3)nc(-c3ccccc3O)nc2c1 (centres unmarked) [Example 271]
5.00 to 5.70	O=C(C1CC1)N1CCN(c2nc(-c3ccccc3O)nc3ccc(F)cc23)CC1 [Example 192]
> 5.70	Cc1ccc2c(N3CC[C@@H](CNC(=O)OCC(C)C)C3)nc(-c3ccccc3O)nc2c1 [Example 365, Isobutyl ((S)-1-(2-(2-hydroxyphenyl)-7-methylquinazolin-4-yl)pyrrolidin-3-yl)methylcarbamate]
< 5.00	CC[C@H](O)C(=O)NC1CCN(c2nc(-c3ccccc3O)nc3cc(C)ccc23)CC1 [Example 244, (2S)-2-Hydroxy-N-(1-(2-(2-hydroxyphenyl)-7-methylquinazolin-4-yl)piperidin-4-yl)butanamide]
< 5.00	Cc1ccc2c(N3CCC(NC(=O)CCc4cccnc4)CC3)nc(-c3ccccc3O)nc2c1 [Example 225, N-{1-[2-(2-Hydroxy-phenyl)-7-methyl-quinazolin-4-yl]-piperidin-4-yl}-3-pyridin-3-yl-propionamide]
< 5.00	O=C(CC1CCOCC1)N[C@@H]1CCN(c2nc(-c3ccccc3O)nc3ccc(F)cc23)C1 [Example 338, N—((R)-1-(6-Fluoro-2-(2-hydroxyphenyl)quinazolin-4-yl)pyrrolidin-3-yl)-2-(tetrahydro-2H-pyran-4-yl)acetamide]
> 5.70	Cc1ccc2c(N3CC(CNC(=O)OC(C)C)C3)nc(-c3ccccc3O)nc2c1 [Example 420]
> 5.70	Cc1ccc2c(N3CCC(NC(=O)[C@H]4CCCO4)CC3)nc(-c3ccccc3O)nc2c1 [Example 283]
< 5.00	CC[C@@H](C)[C@@H](O)C(=O)N1CCN(c2nc(-c3ccccc3O)nc3cc(C)ccc23)CC1 [Example 176, (2R,3R)-2-Hydroxy-1-(4-(2-(2-hydroxyphenyl)-7-methylquinazolin-4-yl)piperazin-1-yl)-3-methylpentan-1-one]
5.00 to 5.70	Cc1ccc2c(N3CC(CNC(=O)OCC4CCCO4)C3)nc(-c3ccccc3O)nc2c1 (centres unmarked) [Example 415]
> 5.70	Cc1ccc2c(N3CCCC(CNC(=O)OCC(C)C)C3)nc(-c3ccccc3O)nc2c1 (centres unmarked) [Example 250, Isobutyl (1-(2-(2-hydroxyphenyl)-7-methylquinazolin-4-yl)piperidin-3-yl)methylcarbamate]
5.00 to 5.70	Cc1ccc2c(N3CC[C@@H](CNC(=O)O[C@H]4CCOC4)C3)nc(-c3ccccc3O)nc2c1 [Example 305, (S)-Tetrahydrofuran-3-yl ((S)-1-(2-(2-hydroxyphenyl)-7-methylquinazolin-4-yl)pyrrolidin-3-yl)methylcarbamate]
5.00 to 5.70	CCCOC(=O)NC[C@@H]1CCCN(c2nc(-c3ccccc3O)nc3cc(C)ccc23)C1 [Example 256, Propyl ((S)-1-(2-(2-hydroxyphenyl)-7-methylquinazolin-4-yl)piperidin-3-yl)methylcarbamate]
< 5.00	Cc1ccc2c(N3CCC(NC(=O)OCc4ccncc4)CC3)nc(-c3ccccc3O)nc2c1 [Example 228, (Pyridin-4-yl)methyl 1-(2-(2-hydroxyphenyl)-7-methylquinazolin-4-yl)piperidin-4-ylcarbamate]
< 5.00	COc1cccc(C(=O)N[C@@H]2CCN(c3nc(-c4ccccc4O)nc4cc(C)ccc34)C2)c1 [Example 326, N—((R)-1-(2-(2-Hydroxyphenyl)-7-methylquinazolin-4-yl)pyrrolidin-3-yl)-3-methoxybenzamide]
< 5.00	Cc1ccc2c(N3CCC[C@H](NC(=O)O[C@H]4CCOC4)C3)nc(-c3ccccc3O)nc2c1 [Example 204, (S)-Tetrahydrofuran-3-yl (S)-1-(2-(2-hydroxyphenyl)-7-methylquinazolin-4-yl)piperidin-3-ylcarbamate]
< 5.00	CC[C@@H](O)C(=O)NC1CCN(c2nc(-c3ccccc3O)nc3cc(C)ccc23)CC1 [Example 243, (2R)-2-Hydroxy-N-(1-(2-(2-hydroxyphenyl)-7-methylquinazolin-4-yl)piperidin-4-yl)butanamide]
> 5.70	Cc1ccc2c(N3CCN(C(=O)OCC(C)(C)C)CC3)nc(-c3ccccc3O)nc2c1 [Example 197]
< 5.00	Cc1ccc2c(N3CCC[C@@H](CNC(=O)OCC(C)C)C3)nc(-c3ccccc3O)nc2c1 [Example 252, Isobutyl ((S)-1-(2-(2-hydroxyphenyl)-7-methylquinazolin-4-yl)piperidin-3-yl)methylcarbamate]

SMILES	pIC50
Cc1ccc2c(N3CC[C@@H](NC(=O)C4C(C)(C)C4(C)C)C3)nc(-c3ccccc3O)nc2c1 [Example 340, N—((R)-1-(2-(2-Hydroxyphenyl)-7-methylquinazolin-4-yl)pyrrolidin-3-yl)-2,2,3,3-tetramethylcyclopropanecarboxamide]	> 5.70
